According to US6737383B1, “Herbicidal oxadiazolidines” (priority 1999, dated 2004):

How the values were obtained:
winter wheat [1] = assay: Test E winter wheat; type: in vivo, Triticum aestivum; settings: Preemergence
soybean = assay: Test B pre/postemergence soybean; type: in vivo, Glycine max
In short: (§1)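 Test chemicals in a non-phytotoxic solvent mixture with surfactant were sprayed preemergence onto planted seeds and postemergence onto plants 2 to 18 cm tall (1- to 4-leaf stage). After twelve to sixteen days in a greenhouse, injury was visually rated against untreated controls from 0 (no effect) to 10 (complete control).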

velvetleaf = assay: Test B pre/postemergence velvetleaf; type: in vivo, Abutilon theophrasti
In short: as §1

wild oat = assay: Test E wild oat; type: in vivo, Avena fatua; settings: Preemergence
winter barley = assay: Test E winter barley; type: in vivo, Hordeum vulgare; settings: Preemergence
smallflower flatsedge = assay: Test B flood test smallflower flatsedge; type: in vivo, Cyperus difformis; settings: for Plant response rating, S. Flatsedge: Postemergence (flood test)
In short: (§2)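 Read-out is a visual response score from 0 (no effect) to 10 (complete control), assigned by comparison with untreated controls. Treatment was applied at the 2-leaf stage, and plants stayed in the greenhouse for twelve to sixteen days before scoring.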

winter wheat [2] = assay: Test E winter wheat; type: in vivo, Triticum aestivum; settings: Postemergence; for Plant response rating, Wheat (winter): 0 to 100 scale
In short: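 Compounds formulated in non-phytotoxic solvent mixture with surfactant; for postemergence, sprayed on plants at 1- to 4-leaf stage grown in 60:40 sandy loam/greenhouse potting mix. Kept in greenhouse ~21 to 28 days, then visually rated against untreated controls.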

green foxtail = assay: Test E green foxtail; type: in vivo, Setaria viridis; settings: Preemergence
Italian ryegrass = assay: Test E Italian ryegrass; type: in vivo, Lolium multiflorum; settings: Preemergence
duck salad = assay: Test B flood test duck salad; type: in vivo, Heteranthera limosa
In short: as §2

blackgrass = assay: Test E blackgrass; type: in vivo, Alopecurus myosuroides; settings: Preemergence
[3] = Rate 125 g/ha, 0 to 100 scale (0 no effect, 100 complete control)
[4] = Preemergence, Rate 62 g/ha, scale of 0 to 10 where 0 is no effect and 10 is complete control
[5] = Preemergence, Rate 250 g/ha, scale of 0 to 10 where 0 is no effect and 10 is complete control
[6] = Preemergence, Rate 500 g/ha, scale of 0 to 10 where 0 is no effect and 10 is complete control
[7] = Rate 125 g/ha, Postemergence, scale of 0 to 10 where 0 is no effect and 10 is complete control
[8] = Rate 250 g/ha, Postemergence, scale of 0 to 10 where 0 is no effect and 10 is complete control
[9] = Rate 62 g/ha, headed Pre-emergence (flood test species), scale 0 to 10 (0 no effect, 10 complete control)
[10] = Rate 125 g/ha, Pre-emergence, flood test species, scale 0 to 10 where 0 is no effect and 10 is complete control
[11] = Rate 250 g/ha, Pre-emergence, flood-test species, scale 0 to 10, 0 is no effect, 10 is complete control
[12] = Rate 500 g/ha, Pre-emergence, flood test species, scale 0 to 10 (0 no effect, 10 complete control)
[13] = Rate 2000 g/ha, 0 to 100 scale, 0 is no effect and 100 is complete control
[14] = Rate 500 g/ha, 0 to 100 scale where 0 is no effect and 100 is complete control
[15] = Rate 1000 g/ha, 0 to 100 scale where 0 is no effect and 100 is complete control
[16] = Postemergence, Rate 125 g/ha, scale of 0 to 10 where 0 is no effect and 10 is complete control
[17] = Postemergence, Rate 1000 g/ha, scale 0 to 10 (0 no effect, 10 complete control)
[18] = Preemergence, Rate 125 g/ha, 0 is no effect, 10 is complete control
[19] = Preemergence, Rate 250 g/ha, scale 0 to 10, 0 is no effect, 10 is complete control
[20] = Preemergence, Rate 500 g/ha, scale 0 to 10 (0 no effect, 10 complete control)
[21] = Rate 62 g/ha, Postemergence, scale of 0 to 10 where 0 is no effect and 10 is complete control
[22] = Rate 250 g/ha, Postemergence, scale 0 to 10, 0 is no effect, 10 is complete control
[23] = Rate 500 g/ha, Postemergence, scale 0 to 10
[24] = Rate 1000 g/ha, Preemergence, scale 0 to 10 (0 no effect, 10 complete control)
[25] = Rate 2000 g/ha, Postemergence, scale 0 to 10
[26] = Rate 2000 g/ha, Preemergence, scale 0 to 10
[27] = Postemergence (flood test species), Rate 125 g/ha, scale of 0 to 10 where 0 is no effect and 10 is complete control
[28] = Rate 62 g/ha, Postemergence section, flood test species, scale of 0 to 10 where 0 is no effect and 10 is complete control
[29] = Rate 250 g/ha, scale 0 to 10, 0 is no effect, 10 is complete control
[30] = Rate 500 g/ha, listed under Postemergence (flood test species), scale 0 to 10
[31] = Rate 2000 g/ha, Pre-emergence (as headed), scale 0 to 10
[32] = Rate 250 g/ha, Postemergence (flood test), scale 0 to 10, 0 is no effect, 10 is complete control
[33] = Preemergence, Rate 62 g/ha, scale 0 to 10 (0 no effect, 10 complete control)

SMILES: CC(C)N(C(=O)n1oc(=O)n(C2CC2)c1=O)c1ccc(F)cc1F [Compound 299]
- Plant response rating, Wheat (winter) (winter wheat [1]; [3]): 50
- Plant response rating, Wheat (winter) (winter wheat [1]; Rate 250 g/ha, 0 to 100 scale): 65
- Soybean plant response rating (soybean; [4]): 0
- Soybean plant response rating (0 to 10 scale) (soybean; Preemergence, Rate 125 g/ha): 0
- Soybean plant response rating (soybean; [5]): 6
- Soybean plant response rating (soybean; [6]): 7
- Soybean plant response rating (soybean; [7]): 6
- Plant response rating, Soybean (soybean; [8]): 6
- Velvetleaf plant response rating (velvetleaf; [4]): 6
- Velvetleaf plant response rating (0 to 10 scale) (velvetleaf; Preemergence, Rate 125 g/ha): 7
- Velvetleaf plant response rating (velvetleaf; [5]): 8
- Velvetleaf plant response rating (velvetleaf; [6]): 8
- Velvetleaf plant response rating (velvetleaf; Rate 62 g/ha, Postemergence, scale 0 to 10, 0 no effect, 10 complete control): 0
- Velvetleaf plant response rating (velvetleaf; [7]): 0
- Plant response rating, Velvetleaf (velvetleaf; [8]): 6
- Plant response rating, Wild oat (wild oat; [3]): 65
- Plant response rating, Wild oat (wild oat; Rate 250 g/ha, 0 to 100 scale): 70
- Plant response rating, Barley (winter) (winter barley; [3]): 40
- Plant response rating, Barley (winter) (winter barley; Rate 250 g/ha, 0 to 100 scale, 0 no effect, 100 complete control): 50
- S. Flatsedge plant response rating (smallflower flatsedge; [9]): 0
- S. Flatsedge plant response rating (smallflower flatsedge; [10]): 0
- S. Flatsedge plant response rating (smallflower flatsedge; [11]): 0
- S. Flatsedge plant response rating (smallflower flatsedge; [12]): 0
- Plant response rating, Wheat (winter) (winter wheat [2]; Rate 125 g/ha, 0 is no effect, 100 is complete control): 60
- Plant response rating, Wheat (winter) (winter wheat [2]; Rate 250 g/ha, 0 is no effect, 100 is complete control): 70
- Plant response rating, Green foxtail (green foxtail; [3]): 100
- Plant response rating, Green foxtail (green foxtail; Rate 250 g/ha, 0 to 100 scale): 100
- Plant response rating, I. Ryegrass (Italian ryegrass; [3]): 70
- Plant response rating, I. Ryegrass (Italian ryegrass; Rate 250 g/ha, 0 to 100 scale): 85
- Ducksalad plant response rating (duck salad; [9]): 0
- Ducksalad plant response rating (duck salad; [10]): 0
- Ducksalad plant response rating (duck salad; [11]): 0
- Ducksalad plant response rating (duck salad; [12]): 0
- Plant response rating, Blackgrass (blackgrass; [3]): 60
- Plant response rating, Blackgrass (blackgrass; Rate 250 g/ha, 0 to 100 scale): 100

SMILES: CC(C)N(C(=O)n1oc(=O)n(N(C)c2ccccc2)c1=O)c1ccc(F)cc1 [Compound 177]
- Plant response rating, Wheat (winter) (winter wheat [1]; [13]): 70
- Plant response rating, Wheat (winter) (winter wheat [1]; [14]): 70
- Plant response rating, Wheat (winter) (winter wheat [1]; [15]): 50
- Soybean plant response rating (soybean; [16]): 1
- Soybean plant response rating (soybean; [17]): 3
- Soybean plant response rating (soybean; [4]): 0
- Soybean plant response rating (0 to 10 scale) (soybean; [18]): 0
- Soybean plant response rating (soybean; [19]): 0
- Soybean plant response rating (soybean; [20]): 0
- Soybean plant response rating (soybean; [21]): 1
- Plant response rating, Soybean (soybean; [22]): 2
- Soybean plant response rating (soybean; [23]): 4
- Plant response rating, Soybean (soybean; [24]): 0
- Soybean plant response rating (soybean; [25]): 4
- Soybean plant response rating (soybean; [26]): 0
- Velvetleaf plant response rating (velvetleaf; [17]): 0
- Velvetleaf plant response rating (velvetleaf; [4]): 0
- Velvetleaf plant response rating (0 to 10 scale) (velvetleaf; [18]): 0
- Velvetleaf plant response rating (velvetleaf; [19]): 0
- Velvetleaf plant response rating (velvetleaf; [20]): 0
- Plant response rating, Velvetleaf (velvetleaf; [22]): 0
- Velvetleaf plant response rating (velvetleaf; [23]): 3
- Plant response rating, Velvetleaf (velvetleaf; [24]): 0
- Velvetleaf plant response rating (velvetleaf; [25]): 4
- Velvetleaf plant response rating (velvetleaf; [26]): 3
- Plant response rating, Wild oat (wild oat; [13]): 70
- Plant response rating, Wild oat (wild oat; [14]): 80
- Plant response rating, Wild oat (wild oat; [15]): 80
- Plant response rating, Barley (winter) (winter barley; [13]): 80
- Plant response rating, Barley (winter) (winter barley; [14]): 60
- Plant response rating, Barley (winter) (winter barley; [15]): 70
- S. Flatsedge plant response rating (smallflower flatsedge; [27]): 0
- S. Flatsedge plant response rating (smallflower flatsedge; Pre-emergence, Rate 1000 g/ha, scale 0 to 10 (0 no effect, 10 complete control)): 0
- S. Flatsedge plant response rating (smallflower flatsedge; [28]): 0
- Plant response rating, S. Flatsedge (smallflower flatsedge; [29]): 0
- S. Flatsedge plant response rating (smallflower flatsedge; [11]): 0
- S. Flatsedge plant response rating (smallflower flatsedge; [30]): 0
- S. Flatsedge plant response rating (smallflower flatsedge; [12]): 0
- S. Flatsedge plant response rating (smallflower flatsedge; [31]): 0
- Plant response rating, Wheat (winter) (winter wheat [2]; Rate 1000 g/ha, 0 is no effect and 100 is complete control): 65
- Plant response rating, Wheat (winter) (winter wheat [2]; Rate 2000 g/ha, 0 is no effect and 100 is complete control): 70
- Plant response rating, Wheat (winter) (winter wheat [2]; Rate 500 g/ha, 0 is no effect, 100 is complete control): 70
- Plant response rating, Green foxtail (green foxtail; [13]): 100
- Plant response rating, Green foxtail (green foxtail; [14]): 60
- Plant response rating, Green foxtail (green foxtail; [15]): 85
- Plant response rating, I. Ryegrass (Italian ryegrass; [13]): 65
- Plant response rating, I. Ryegrass (Italian ryegrass; [14]): 60
- Plant response rating, I. Ryegrass (Italian ryegrass; [15]): 60
- Ducksalad plant response rating (duck salad; [27]): 0
- Ducksalad plant response rating (duck salad; [28]): 0
- Plant response rating, Ducksalad (duck salad; [32]): 2
- Ducksalad plant response rating (duck salad; [11]): 0
- Plant response rating, Ducksalad (duck salad; Rate 500 g/ha, headed Pre-emergence (flood test species), scale 0 to 10 (0 no effect, 10 complete control)): 0
- Ducksalad plant response rating (duck salad; [30]): 2
- Ducksalad plant response rating (duck salad; Rate 1000 g/ha, Pre-emergence (as headed), scale 0 to 10): 0
- Ducksalad plant response rating (duck salad; [31]): 0
- Plant response rating, Blackgrass (blackgrass; [13]): 60
- Plant response rating, Blackgrass (blackgrass; [14]): 60
- Plant response rating, Blackgrass (blackgrass; [15]): 60

SMILES: CC(C)N(C(=O)n1oc(=O)n(C)c1=O)c1ccc(Cl)cc1 [Compound 137]
- Plant response rating, Wheat (winter) (winter wheat [1]; [3]): 20
- Wheat (winter) plant response rating (0 to 100 scale) (winter wheat [1]; Rate 250 g/ha): 30
- Soybean plant response rating (soybean; [16]): 6
- Soybean plant response rating (soybean; [33]): 0
- Soybean plant response rating (0 to 10 scale) (soybean; [18]): 0
- Soybean plant response rating (soybean; [19]): 3
- Soybean plant response rating (soybean; [20]): 5
- Soybean plant response rating (soybean; [21]): 5
- Plant response rating, Soybean (soybean; [22]): 7
- Soybean plant response rating (soybean; [23]): 8
- Velvetleaf plant response rating (velvetleaf; [16]): 0
- Velvetleaf plant response rating (velvetleaf; [33]): 3
- Velvetleaf plant response rating (0 to 10 scale) (velvetleaf; [18]): 6
- Velvetleaf plant response rating (velvetleaf; [19]): 7
- Velvetleaf plant response rating (velvetleaf; [20]): 10
- Velvetleaf plant response rating (velvetleaf; [21]): 0
- Plant response rating, Velvetleaf (velvetleaf; [22]): 4
- Velvetleaf plant response rating (velvetleaf; [23]): 5
- Plant response rating, Wild oat (wild oat; [3]): 20
- Wild oat plant response rating (0 to 100 scale) (wild oat; Rate 250 g/ha): 10
- Plant response rating, Barley (winter) (winter barley; [3]): 20
- Barley (winter) plant response rating (0 to 100 scale) (winter barley; Rate 250 g/ha): 20
- S. Flatsedge plant response rating (smallflower flatsedge; [27]): 0
- S. Flatsedge plant response rating (smallflower flatsedge; [28]): 0
- Plant response rating, S. Flatsedge (smallflower flatsedge; [29]): 0
- Plant response rating, Wheat (winter) (winter wheat [2]; Rate 125 g/ha): 10
- Wheat (winter) plant response rating (winter wheat [2]; Rate 250 g/ha, 0 to 100 scale where 0 is no effect and 100 is complete control): 20
- Plant response rating, Green foxtail (green foxtail; [3]): 15
- Green foxtail plant response rating (0 to 100 scale) (green foxtail; Rate 250 g/ha): 50
- Plant response rating, I. Ryegrass (Italian ryegrass; [3]): 20
- I. Ryegrass plant response rating (0 to 100 scale) (Italian ryegrass; Rate 250 g/ha): 50
- Ducksalad plant response rating (duck salad; [27]): 0
- Ducksalad plant response rating (duck salad; Rate 31 g/ha, Postemergence section (flood test species), scale 0 to 10): 0
- Ducksalad plant response rating (duck salad; [28]): 0
- Plant response rating, Ducksalad (duck salad; [32]): 0
- Plant response rating, Blackgrass (blackgrass; [3]): 20
- Blackgrass plant response rating (0 to 100 scale) (blackgrass; Rate 250 g/ha): 30
